# According to the supplement of paper PMC10307832:
# Legend:
# Assay in all cases: relative viability (nuclei count vs DMSO), 5 days (fraction); higher = more cells survive
# A-427 = tested on: A-427
# Procedure, shortened: (§1)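 Medians of duplicate plates are given as relative viability. That measure is the nuclei count in treated wells divided by the count in vehicle wells. Counts were taken on 4× images of lung cancer cell lines in 1536-well plates, 5 days after pin-tool dosing the day after seeding with one drug alone or a fixed anchor-drug dose plus five library-drug doses (not always all listed) in √10 steps.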
# NCI-H1915 = tested on: NCI-H1915
# Procedure, shortened: as §1
# HARA = tested on: HARA
# Procedure, shortened: as §1
# NCI-H2405 = tested on: NCI-H2405
# Procedure, shortened: as §1
# NCI-H1993 = tested on: NCI-H1993
# Procedure, shortened: as §1
# RERF-LC-KJ = tested on: RERF-LC-KJ
# Procedure, shortened: as §1
# NCI-H838 = tested on: NCI-H838
# Procedure, shortened: as §1
# LOU-NH91 = tested on: LOU-NH91
# Procedure, shortened: as §1
# LU99A = tested on: LU99A
# Procedure, shortened: as §1
# NCI-H1975 = tested on: NCI-H1975
# Procedure, shortened: as §1
# COR-L23 = tested on: COR-L23
# Procedure, shortened: as §1
smiles,measurement,setting,value
COCC1(CO)C(=O)C2CCN1CC2 (stereo unspecified) [PRIMA-1MET] + O=C(c1cc(Cc2n[nH]c(=O)c3ccccc23)ccc1F)N1CCN(C(=O)C2CC2)CC1 [Olaparib] (partner 8 µM),relative viability,A-427; first compound 0.2 µM,0.918
same,relative viability,A-427; first compound 0.6325 µM,0.607
same,relative viability,A-427; first compound 2 µM,0.746
same,relative viability,A-427; first compound 6.325 µM,0.765
same,relative viability,A-427; first compound 20 µM,0.687
same,relative viability,NCI-H1915; first compound 0.2 µM,0.249
same,relative viability,NCI-H1915; first compound 0.6325 µM,0.235
same,relative viability,NCI-H1915; first compound 2 µM,0.239
same,relative viability,NCI-H1915; first compound 6.325 µM,0.256
same,relative viability,NCI-H1915; first compound 20 µM,0.254
same,relative viability,HARA; first compound 0.2 µM,0.69
same,relative viability,HARA; first compound 0.6325 µM,0.832
same,relative viability,HARA; first compound 2 µM,0.7
same,relative viability,HARA; first compound 6.325 µM,0.75
same,relative viability,HARA; first compound 20 µM,0.741
same,relative viability,NCI-H2405; first compound 0.2 µM,0.947
same,relative viability,NCI-H2405; first compound 0.6325 µM,0.986
same,relative viability,NCI-H2405; first compound 6.325 µM,0.88
same,relative viability,NCI-H2405; first compound 20 µM,0.167
same,relative viability,NCI-H1993; first compound 0.2 µM,1.21
same,relative viability,NCI-H1993; first compound 2 µM,0.95
same,relative viability,NCI-H1993; first compound 6.325 µM,1.07
same,relative viability,NCI-H1993; first compound 20 µM,0.896
same,relative viability,RERF-LC-KJ; first compound 0.2 µM,0.969
same,relative viability,RERF-LC-KJ; first compound 0.6325 µM,0.988
same,relative viability,RERF-LC-KJ; first compound 2 µM,0.977
same,relative viability,RERF-LC-KJ; first compound 6.325 µM,1.09
same,relative viability,RERF-LC-KJ; first compound 20 µM,0.922
same,relative viability,NCI-H838; first compound 0.2 µM,0.788
same,relative viability,NCI-H838; first compound 0.6325 µM,0.76
same,relative viability,NCI-H838; first compound 2 µM,0.809
same,relative viability,NCI-H838; first compound 6.325 µM,0.789
same,relative viability,NCI-H838; first compound 20 µM,0.579
same,relative viability,LOU-NH91; first compound 0.2 µM,1.02
same,relative viability,LOU-NH91; first compound 0.6325 µM,0.911
same,relative viability,LOU-NH91; first compound 2 µM,0.866
same,relative viability,LOU-NH91; first compound 6.325 µM,0.978
same,relative viability,LOU-NH91; first compound 20 µM,0.65
same,relative viability,LU99A; first compound 0.2 µM,0.312
same,relative viability,LU99A; first compound 0.6325 µM,0.24
same,relative viability,LU99A; first compound 2 µM,0.263
same,relative viability,LU99A; first compound 6.325 µM,0.22
same,relative viability,LU99A; first compound 20 µM,0.0441
same,relative viability,NCI-H1975; first compound 0.2 µM,1.01
same,relative viability,NCI-H1975; first compound 0.6325 µM,0.699
same,relative viability,NCI-H1975; first compound 2 µM,0.775
same,relative viability,NCI-H1975; first compound 6.325 µM,0.847
same,relative viability,NCI-H1975; first compound 20 µM,0.616
same,relative viability,COR-L23; first compound 0.2 µM,0.38
same,relative viability,COR-L23; first compound 0.6325 µM,0.315
same,relative viability,COR-L23; first compound 2 µM,0.379
